From patent publication US6319685A (Unigene Laboratories, Inc., priority 1987, dated 2001) come the findings set out here.

Data set [1] deals with T1, alpha-amidating enzyme (Rattus norvegicus, UniProt P14925).
T1 sequence (P14925 36-976): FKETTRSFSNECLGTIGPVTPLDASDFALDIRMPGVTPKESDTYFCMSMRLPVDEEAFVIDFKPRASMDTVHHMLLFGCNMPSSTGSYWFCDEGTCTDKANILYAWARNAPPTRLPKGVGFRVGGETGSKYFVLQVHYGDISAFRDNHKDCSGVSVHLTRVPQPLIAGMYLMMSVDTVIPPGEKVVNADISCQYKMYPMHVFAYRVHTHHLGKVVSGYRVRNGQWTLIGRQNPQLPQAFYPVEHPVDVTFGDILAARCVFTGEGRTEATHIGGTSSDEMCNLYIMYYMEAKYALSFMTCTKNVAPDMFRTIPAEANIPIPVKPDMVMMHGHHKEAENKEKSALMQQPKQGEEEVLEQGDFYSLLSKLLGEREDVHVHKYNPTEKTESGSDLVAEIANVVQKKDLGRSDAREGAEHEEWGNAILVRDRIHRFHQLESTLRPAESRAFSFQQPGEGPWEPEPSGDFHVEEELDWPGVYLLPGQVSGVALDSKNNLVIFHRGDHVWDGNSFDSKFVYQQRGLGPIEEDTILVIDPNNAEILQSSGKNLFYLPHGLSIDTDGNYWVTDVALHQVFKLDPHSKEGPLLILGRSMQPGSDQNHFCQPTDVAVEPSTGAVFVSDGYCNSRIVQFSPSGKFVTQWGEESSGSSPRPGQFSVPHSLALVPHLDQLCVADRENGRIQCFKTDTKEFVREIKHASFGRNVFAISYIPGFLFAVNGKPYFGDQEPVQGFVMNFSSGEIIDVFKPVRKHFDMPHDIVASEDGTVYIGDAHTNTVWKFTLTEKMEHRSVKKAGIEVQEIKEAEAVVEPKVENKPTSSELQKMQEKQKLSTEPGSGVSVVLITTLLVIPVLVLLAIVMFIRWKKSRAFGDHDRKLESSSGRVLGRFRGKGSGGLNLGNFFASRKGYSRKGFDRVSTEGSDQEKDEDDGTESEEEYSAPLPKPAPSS
Briefly: comparison of assay systems / kinetic analysis of amidation of dansyl-Tyr-Val-Gly, D-Tyr-Val-Gly and 125I-D-Tyr-Val-Gly. It is filed as biochemical. The procedure: I. Monodansyl L-Tyr-Val-Gly
The concentration of enzyme used in all experiments was left constant except where noted.
The reaction mixture for the conversion of the monodansyl substrate contained:
5 μl of 100 ug/mL bovine pancreatic catalase
5 μl containing 2 nmoles of substrate
The samples were prepared in duplicate and incubated at 37° C. for 10, 20 and 30 minutes time periods. The enzymatic reaction was halted by the addition of 10 ul 500 mM EDTA. Substrate and product were separated by RP HPLC using an Hewlett Packard-1090 liquid chromatography system, and quantitation was achieved using a HP-3392 integrator.
D-Tyr-Val-Gly and D-Tyr-Val-NH2 were iodinated using iodobeads from Pierce Chemical Company. The radiolabeied substrate and product were used to calibrate a sulfyl-propyl cation-exchange column. ^125 I D-Tyr-Val-Gly was added to 650 uM D-Tyr-Val-Gly and used as the substrate. The reaction mixture for the conversion of monodansyl substrate contained:
Samples were incubated for 10, 20, 30 minutes at 37° C. The reaction was stopped by addition of 500 mM EDTA. […] The conversion of radiolabeled substrate to product was linear with respect to time.
The reaction conditions used for the amidation of D-Tyr-Val-Gly are identical to those described for the dansyl and iodinated substrates. Substrate concentration in the reaction mixture was 650 uM. Separation of substrate and product is achieved by gradient elution on RP-HPLC using a HP-1090 liquid chromatography system. The column effluents were monitored at 280 nm. The level of sensitivity for this assay is much lower than that for either dansyl or iodinated substrates.
Furthermore, a somewhat more rigorous kinetic analysis has also been employed to compare the dansyl-Tyr-Val-Gly (Applicants') assay to the D-Tyr-Val-Gly (prior art) assay.

The target of data set [2] is T1, alpha-amidating enzyme. As to the kind of experiment: kinetic studies of alpha-amidating enzyme with monodansyl L-Tyr-Val-Gly. It is filed as biochemical. As to conditions: pH 7.0, 37° C. The source says: These assays incorporate the use of synthetic tripeptide substrates. Amidation of these substrates is conveniently monitored by separation and quantification of the product ([…] and substrate tripeptide) using HPLC. The most sensitive of the assays developed utilizes monodansyl L-Tyr-Val-Gly as substrate. This compound can be detected at extremely low levels because the dansyl group is fluorescent.
In particular, the kinetic parameters Km and Vmax have been determined by examination of the effect of variation of substrate concentration upon enzymatic activity. […] The smaller the Km the greater the affinity. Vmax is the maximum velocity at which the enzyme will convert the substrate to product and is observed at saturating concentrations of substrate (i.e., the substrate is present in large excess over the enzyme).
In a typical amidation enzyme assay, the reation system (50 ul) would comprise enzyme (approximately 7 μg), dansyl L-Tyr-Val-Gly (up to 40 μM), L-ascorbic acid (3 mM), catalase (0 to 100 μg ml^-1), and copper sulfate (0 to 2 uM) in 60 mM TES buffer at pH 7.0. The reaction is initiated at 37° C. by the addition of enzyme and terminated after a defined period of time by the addition of 0.1 M EDTA (final concentration), which binds up copper making it unavailable for the enzyme.

The Km is the substrate concentration at which the rate is half of its maximum. On to “monodansyl L-Tyr-Val-Gly [Dansyl-Tyr-Val-Gly]”, for which, at alpha-amidating enzyme [1], the Michaelis-Menten constant (Km) amounted to 1.7 µM and the Vmax came to 21 pmol product/min/μl. Further, the Km on alpha-amidating enzyme [2] (regardless of the state of purification of the enzyme) was in the range of 1 to 2 µM.

B1: pure tumor enzyme: pure alpha-amidating enzyme from tumor (protein, UniProt P14925 36-976, looked up)
Peptidylglycine …: FKETTRSFSNECLGTIGPVTPLDASDFALDIRMPGVTPKESDTYFCMSMRLPVDEEAFVIDFKPRASMDTVHHMLLFGCNMPSSTGSYWFCDEGTCTDKANILYAWARNAPPTRLPKGVGFRVGGETGSKYFVLQVHYGDISAFRDNHKDCSGVSVHLTRVPQPLIAGMYLMMSVDTVIPPGEKVVNADISCQYKMYPMHVFAYRVHTHHLGKVVSGYRVRNGQWTLIGRQNPQLPQAFYPVEHPVDVTFGDILAARCVFTGEGRTEATHIGGTSSDEMCNLYIMYYMEAKYALSFMTCTKNVAPDMFRTIPAEANIPIPVKPDMVMMHGHHKEAENKEKSALMQQPKQGEEEVLEQGDFYSLLSKLLGEREDVHVHKYNPTEKTESGSDLVAEIANVVQKKDLGRSDAREGAEHEEWGNAILVRDRIHRFHQLESTLRPAESRAFSFQQPGEGPWEPEPSGDFHVEEELDWPGVYLLPGQVSGVALDSKNNLVIFHRGDHVWDGNSFDSKFVYQQRGLGPIEEDTILVIDPNNAEILQSSGKNLFYLPHGLSIDTDGNYWVTDVALHQVFKLDPHSKEGPLLILGRSMQPGSDQNHFCQPTDVAVEPSTGAVFVSDGYCNSRIVQFSPSGKFVTQWGEESSGSSPRPGQFSVPHSLALVPHLDQLCVADRENGRIQCFKTDTKEFVREIKHASFGRNVFAISYIPGFLFAVNGKPYFGDQEPVQGFVMNFSSGEIIDVFKPVRKHFDMPHDIVASEDGTVYIGDAHTNTVWKFTLTEKMEHRSVKKAGIEVQEIKEAEAVVEPKVENKPTSSELQKMQEKQKLSTEPGSGVSVVLITTLLVIPVLVLLAIVMFIRWKKSRAFGDHDRKLESSSGRVLGRFRGKGSGGLNLGNFFASRKGYSRKGFDRVSTEGSDQEKDEDDGTESEEEYSAPLPKPAPSS
As for B1, the Vmax result in the data set with alpha-amidating enzyme [2] (dansyl L-Tyr-Val-Gly, pure tumor enzyme) was “about 5000 nmol product formed per mg protein”.
